The supplement of paper PMC10307832

Columns and labels:
Experiment in all cases: relative viability (nuclei count vs DMSO), 5 days (fraction); higher = more cells survive
Everolimus + Vorinostat = compound: CO[C@H]1C[C@@H]2CC[C@@H](C)[C@@](O)(O2)C(=O)C(=O)N2CCCC[C@H]2C(=O)O[C@H]([C@H](C)C[C@@H]2CC[C@@H](OCCO)[C@H](OC)C2)CC(=O)[C@H](C)/C=C(\C)[C@@H](O)[C@@H](OC)C(=O)[C@H](C)C[C@H](C)/C=C/C=C/C=C/1C [Everolimus] + O=C(CCCCCCC(=O)Nc1ccccc1)NO [Vorinostat] (partner 1 µM)
Method in brief: (§1)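 Values are medians from duplicate plates. Each reflects relative viability, defined as the nuclei count of treated wells over that of vehicle wells. Lung cancer cell lines in 1536-well plates were pin-tool dosed one day after seeding with one drug alone or with a fixed anchor-drug dose plus five library-drug doses (not always all listed) in √10 steps, then fixed, stained and imaged at 4× after 5 days.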

Everolimus + Crizotinib = compound: CO[C@H]1C[C@@H]2CC[C@@H](C)[C@@](O)(O2)C(=O)C(=O)N2CCCC[C@H]2C(=O)O[C@H]([C@H](C)C[C@@H]2CC[C@@H](OCCO)[C@H](OC)C2)CC(=O)[C@H](C)/C=C(\C)[C@@H](O)[C@@H](OC)C(=O)[C@H](C)C[C@H](C)/C=C/C=C/C=C/1C [Everolimus] + C[C@@H](Oc1cc(-c2cnn(C3CCNCC3)c2)cnc1N)c1c(Cl)ccc(F)c1Cl [Crizotinib] (partner 1 µM)
Method in brief: as §1

Everolimus + Navitoclax = compound: CO[C@H]1C[C@@H]2CC[C@@H](C)[C@@](O)(O2)C(=O)C(=O)N2CCCC[C@H]2C(=O)O[C@H]([C@H](C)C[C@@H]2CC[C@@H](OCCO)[C@H](OC)C2)CC(=O)[C@H](C)/C=C(\C)[C@@H](O)[C@@H](OC)C(=O)[C@H](C)C[C@H](C)/C=C/C=C/C=C/1C [Everolimus] + CC1(C)CCC(c2ccc(Cl)cc2)=C(CN2CCN(c3ccc(C(=O)NS(=O)(=O)c4ccc(N[C@H](CCN5CCOCC5)CSc5ccccc5)c(S(=O)(=O)C(F)(F)F)c4)cc3)CC2)C1 [Navitoclax] (partner 0.5 µM)
Method in brief: as §1

Everolimus + Dasatinib = compound: CO[C@H]1C[C@@H]2CC[C@@H](C)[C@@](O)(O2)C(=O)C(=O)N2CCCC[C@H]2C(=O)O[C@H]([C@H](C)C[C@@H]2CC[C@@H](OCCO)[C@H](OC)C2)CC(=O)[C@H](C)/C=C(\C)[C@@H](O)[C@@H](OC)C(=O)[C@H](C)C[C@H](C)/C=C/C=C/C=C/1C [Everolimus] + Cc1nc(Nc2ncc(C(=O)Nc3c(C)cccc3Cl)s2)cc(N2CCN(CCO)CC2)n1 [Dasatinib] (partner 0.075 µM)
Method in brief: as §1

Cell Line | relative viability (Everolimus + Vorinostat; first compound 0.01 µM) | relative viability (Everolimus + Vorinostat; first compound 0.03162 µM) | relative viability (Everolimus + Vorinostat; first compound 0.1 µM) | relative viability (Everolimus + Vorinostat; first compound 0.3162 µM) | relative viability (Everolimus + Vorinostat; first compound 1 µM) | relative viability (Everolimus + Crizotinib; first compound 0.01 µM) | relative viability (Everolimus + Crizotinib; first compound 0.03162 µM) | relative viability (Everolimus + Crizotinib; first compound 0.1 µM) | relative viability (Everolimus + Crizotinib; first compound 0.3162 µM) | relative viability (Everolimus + Crizotinib; first compound 1 µM) | relative viability (Everolimus + Navitoclax; first compound 0.01 µM) | relative viability (Everolimus + Navitoclax; first compound 0.03162 µM) | relative viability (Everolimus + Navitoclax; first compound 0.1 µM) | relative viability (Everolimus + Navitoclax; first compound 0.3162 µM) | relative viability (Everolimus + Navitoclax; first compound 1 µM) | relative viability (Everolimus + Dasatinib; first compound 0.01 µM) | relative viability (Everolimus + Dasatinib; first compound 0.03162 µM) | relative viability (Everolimus + Dasatinib; first compound 0.1 µM) | relative viability (Everolimus + Dasatinib; first compound 0.3162 µM) | relative viability (Everolimus + Dasatinib; first compound 1 µM)
NCI-H2009 | 0.563 | 0.611 | 0.54 | 0.54 | 0.503 | 0.693 | 0.856 | 0.612 | 0.646 | 0.763 | 1.04 | 1.09 | 0.898 | 0.814 | 0.836 | 0.214 | 0.218 | 0.225 | 0.244 | 0.215
NCI-H2126 | 0.546 | 0.482 | 0.407 | 0.553 | 0.497 | 0.755 | 0.736 | 0.671 | 0.721 | 0.665 | 0.515 | 0.455 | 0.4 | 0.492 | 0.485 | 0.422 | 0.423 | 0.35 | 0.467 | 0.373
LXF-289 | 0.909 | 0.831 | 0.817 | 0.987 | 0.934 | 0.885 | 0.978 | 0.904 | 0.88 | 0.888 | 0.99 | 1.04 | 0.958 | 0.96 | 0.957 | 0.291 | 0.199 | 0.151 | 0.197 | 0.178
PC-14 | 0.379 | 0.576 | 0.486 | 0.528 | 0.421 | 0.983 | 0.936 | 0.942 | 0.908 | 0.741 | 1.06 | 1.05 | 0.88 | 0.911 | 0.864 | 0.23 | 0.168 | 0.216 | 0.237 | 0.177
HOP-62 | 0.475 | 0.345 | 0.388 | 0.389 | 0.361 | 0.934 | 0.58 | 0.556 | 0.583 | 0.637 | 0.997 | 0.875 | 0.862 | 0.786 | 0.948 | 0.394 | 0.424 | 0.352 | 0.382 | 0.387
SK-MES-1 | 0.897 | 1 | 1 | 0.887 | 0.743 | 0.871 | 0.689 | 0.689 | 0.644 | 0.608 | 0.948 | 0.688 | – | 0.715 | 0.579 | 0.357 | 0.339 | 0.398 | 0.346 | 0.331
NCI-H1666 | 1.04 | 1.08 | 1.04 | 1.05 | 0.92 | 0.878 | 0.776 | 0.629 | 0.877 | 0.654 | 0.766 | 0.687 | 0.508 | 0.559 | 0.42 | 0.826 | 0.722 | 0.795 | 0.78 | 0.813
NCI-H1355 | 0.385 | 0.331 | 0.341 | 0.365 | 0.295 | 0.524 | 0.462 | 0.46 | 0.426 | 0.438 | 0.541 | 0.415 | 0.349 | 0.394 | 0.377 | 0.436 | 0.402 | 0.315 | 0.334 | 0.316
HCC-827 | 0.643 | 0.578 | 0.709 | 0.827 | 0.794 | 0.947 | 0.831 | 0.852 | 0.998 | 0.839 | 1.02 | 1.07 | 0.99 | 1.04 | 0.987 | 0.221 | 0.331 | 0.2 | 0.168 | 0.17
HARA | 0.431 | 0.494 | 0.407 | 0.371 | 0.485 | 1 | 1.12 | 0.928 | 0.986 | 0.952 | 1.14 | 1.2 | 1.12 | 1.11 | 0.898 | 0.199 | 0.244 | – | 0.209 | 0.289
HCC-366 | 0.221 | 0.16 | 0.181 | 0.214 | 0.165 | 0.433 | 0.441 | 0.526 | 0.295 | 0.372 | 0.859 | 0.823 | 0.871 | 0.91 | 0.511 | 0.459 | 0.593 | 0.477 | 0.46 | 0.354
NCI-H322M | 0.77 | 0.601 | 0.712 | 0.654 | 0.713 | 0.914 | 0.753 | 0.775 | 0.795 | 0.704 | 1.21 | 1.05 | 0.905 | 0.902 | 0.79 | 0.243 | 0.245 | 0.245 | 0.243 | 0.244
NCI-H2347 | 0.565 | 0.556 | 0.455 | 0.419 | 0.551 | 0.683 | 0.568 | 0.554 | 0.546 | 0.58 | 0.906 | 0.453 | 0.26 | 0.453 | 0.429 | 0.242 | 0.285 | 0.188 | 0.293 | 0.189
NCI-H1975 | 0.599 | 0.587 | 0.608 | 0.565 | 0.542 | 0.924 | 0.774 | 0.921 | 0.876 | 0.783 | 1.01 | 0.794 | 0.802 | 0.798 | 0.606 | 0.305 | 0.264 | 0.222 | 0.298 | 0.183
